Measurements from patent US20240101548A1, “HYDROXAMATE COMPOUND, PREPARATION METHOD THEREFOR AND APPLICATION THEREOF” (SHENZHEN CHIPSCREEN BIOSCIENCES CO., LTD., priority 2020, published 2024).
Read-outs that look alike come from different tables or passages of the source.

Assays:
[1] = test system: IL-10-induced JAK1/TYK2 signal pathway; assay: IL-10-induced JAK1/TYK2 signal pathway STAT3-Luc reporter gene assay in U2OS cells; format: cell-based, human; conditions: U2OS cells, STAT3-Luc reporter, IL-10 10 ng/mL, read-out: Half inhibition dose (IC50) on IL-10-induced JAK1/TYK2 signal pathway
Method in brief: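 Luciferase read-out (560 nm) corrected by GFP signal (Ex485/Em520) gives IL-10 pathway activity, and IC50 is derived from inhibition rates. Cells were U2OS transfected with IL-10R1 plus STAT3-Luc reporter, pretreated 6 h with 0.1–300 nM compound, then stimulated 24 h with IL-10 at 10 ng/mL.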

[2] = test system: EPO-induced JAK2 signal pathway; assay: EPO-induced proliferation of UT-7 cells (JAK2 signal); format: cell-based, human; conditions: Homo sapiens, UT7; UT-7 cell proliferation, EPO 10 ng/mL, 72 hours; read-out: Inhibition activity IC50 on EPO-induced JAK2 signal pathway
Method in brief: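 […] was derived from inhibition rates across doses, scaled between wells lacking compound and cytokine (0) and EPO without compound (100), using alamarBlue fluorescence at Ex530/Em590. Compound (final 0-10000 nM) and 10 ng/mL EPO were given to UT-7 cells at 15000 per well for 72 h at 37° C.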

[3] = test system: INF-α-induced pSTAT5 in human PBMC; assay: INF-α-induced pSTAT5 in human PBMC (FACS, CD3 positive cells); format: cell-based; conditions: IFN-α 30 ng/ml, read-out: Inhibition activity IC50 on INF-α-induced pSTAT5 in human PBMC
Protocol: hPBMC (available from Shanghai AoNeng Biotechnology Co., Ltd.) was inoculated in 96-well plate, added with compound of the present invention (at concentrations of 40 nM and 200 nM), incubated for 60 min (compound in concentrations of 2 nM, 10 nM respectively during the incubation); added with 30 ng/ml of stimulating factor IFN-α (BioLegend) together with anti-CD3 antibody (Biolegend) and then continued to be incubated for 30 min. After the incubation, each well was added with 1 mL of fixing solution (BD Biosciences), the obtained mixture was incubated for 10 min followed by centrifugation, added with 400 μL/well of Perm III (BD Biosciences), followed by further incubation at 4° C. for 30 min. The obtained mixture was added with mouse anti-human pSTAT5 antibody (Alexa Fluor® 647 Conjugate), followed by incubation at room temperature for 40 min. Fluorescence intensity of pSTAT5 in CD3 positive cells was detected by FACS.
Inhibition rate at individual compound concentration was calculated with the following formula:
Inhibition rate=(MFI value(IFN-α-stimulated control)−MI value(2/10 nM compound treated group)/MFI value(IFN-α-stimulated control)[…]
wherein: MFI value meant fluorescence intensity value; IFN-α-stimulated control meant control group which was operated similarly to the experimental groups but no compound of the present invention was added.

[4] = test system: IL-2-induced JAK1/JAK3 signal pathway; assay: IL-2-induced proliferation of KHYG-1 cells (JAK1/JAK3 signal); format: cell-based, human; conditions: Homo sapiens; KHYG-1 cell proliferation, IL-2 10 ng/mL, 72 hours; read-out: Inhibition activity IC50 on IL-2-induced JAK1/JAK3 signal pathway
Method in brief: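 Controls were wells lacking both compound and cytokine (0%) and compound-free IL-2 wells (100%). C50 was calculated from inhibition rates across doses.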

Compound | IC50 ([1]; Homo sapiens, U2OS) | IC50 [2] | IC50 ([3]; Homo sapiens, PBMC) | IC50 [4] | IC50 [1] | IC50 [3] | IC50 ([1]; Homo sapiens)
CCONC(=O)c1cnc(Nc2cc(C)nc(C)n2)cc1Nc1cc(F)cc(-c2ncc(C)cn2)c1OC [Example 225, 6-((2,6-dimethylpyrimidin-4-yl)amino)-N-ethoxy-4-((5-fluoro-2-methoxy-3-(5-methylpyrimidin-2-yl)phenyl)amino)nicotinamide] | 0.36 nM | > 10000 nM | < 2 nM | > 10000 nM |  |  | 
BMS-986165 |  |  |  |  | 3.03 nM | 2 nM | 
CCONC(=O)c1cnc(NC(=O)C2CC2)cc1Nc1cc(F)cc(-c2ncn(C3CC3)n2)c1OC [Example 205] | 1.79 nM | > 10000 nM | < 2 nM | > 10000 nM |  |  | 
CCONC(=O)c1cnc(Nc2cc(C)nc(C)n2)cc1Nc1cc(F)cc(-c2ncc(F)cn2)c1OC [Example 211] | 1.98 nM | > 10000 nM | < 2 nM | > 10000 nM |  |  | 
CCONC(=O)c1cnc(Nc2cc(C)nc(C)n2)cc1Nc1cccc(-c2cnccn2)c1OC [Example 248, 6-((2,6-dimethylpyrimidin-4-yl)amino)-N-ethoxy-4-((2-methoxy-3-(pyrazin-2-yl)phenyl)amino)nicotinamide] |  | > 10000 nM | < 2 nM | > 10000 nM |  |  | 1.04 nM
